ChEMBL document CHEMBL5143627, “Design, synthesis, and biological evaluation of polyphenol derivatives as DYRK1A inhibitors. The discovery of a potentially promising treatment for Multiple Sclerosis” (Bioorg Med Chem Lett, 2022)
Calls of active or inactive are those of the source. The calls are words filed in the database; no cut-off is given here.

Assays:
Mus musculus [1] = test: Anti-inflammatory activity in MOG (35 to 55 residues)-induced experimental autoimmune encephalomyelitis mouse model assessed as reduction in spinal cord inflammation severity score at 15 mg/kg, INH by H&E staining based light microscopic analysis; assay type: functional, organism-based
Mus musculus [2] = test: Anti-inflammatory activity in MOG (35 to 55 residues)-induced experimental autoimmune encephalomyelitis mouse model assessed as reduction in brain IFNgamma level at 15 mg/kg, INH; assay type: functional; design: scale not given: the % may be the effect or the level left
Mus musculus [3] = test: Anti-inflammatory activity in MOG (35 to 55 residues)-induced experimental autoimmune encephalomyelitis mouse model assessed as reversal of clinical scores at 15 mg/kg, INH administered twice daily for 25 days; assay type: functional, organism-based; settings: time 25.0 day
[4] = biological target: Dual specificity tyrosine-phosphorylation-regulated kinase 1A (Homo sapiens, UniProt Q13627); test: Inhibition of DYRK1A (unknown origin) using HT-497 as substrate preincubated with compound followed by substrate addition and measured after 30 mins in the presence of ATP by ELISA analysis
Mus musculus [5] = test: Anti-inflammatory activity in MOG (35 to 55 residues)-induced experimental autoimmune encephalomyelitis mouse model assessed as reduction in spinal cord axonal neurodegeneration severity score at 15 mg/kg, INH by Bielschowsky silver staining based light microscopic analysis; assay type: functional, organism-based
Mus musculus [6] = test: Anti-inflammatory activity in MOG (35 to 55 residues)-induced experimental autoimmune encephalomyelitis mouse model assessed as reduction in brain IL-17 level at 15 mg/kg, INH; assay type: functional; design: scale not given: the % may be the effect or the level left
Mus musculus [7] = test: Anti-inflammatory activity in MOG (35 to 55 residues)-induced experimental autoimmune encephalomyelitis mouse model assessed as reduction in brain TNFalpha level at 15 mg/kg, INH; assay type: functional, organism-based
Mus musculus [8] = test: Anti-inflammatory activity in MOG (35 to 55 residues)-induced experimental autoimmune encephalomyelitis mouse model assessed as reduction in spinal cord demyelination severity score at 15 mg/kg, INH by Luxol fast blue staining based light microscopic analysis; assay type: functional, organism-based
[9] = Oral bioavailability in Sprague-Dawley rat at 100 mg/kg; assay type: ADME, organism-based; settings: in vivo
[10] = Bioavailability in CF-1 mouse at 163.8 micromol/kg, IG measured upto 720 mins; assay type: ADME, organism-based; settings: in vivo, po, 163.8 µmol/kg
Mus musculus [11] = test: Anti-inflammatory activity in MOG (35 to 55 residues)-induced experimental autoimmune encephalomyelitis mouse model assessed as reversal of clinical scores at 1 mg/kg, INH administered once daily for 25 days; assay type: functional, organism-based; settings: time 25.0 day
Mus musculus [12] = species on record: Mus musculus; test: Anti-inflammatory activity in MOG (35 to 55 residues)-induced experimental autoimmune encephalomyelitis mouse model assessed as reduction in spinal cord demyelination severity score by Luxol fast blue staining based light microscopic analysis; assay type: functional, organism-based
Mus musculus [13] = species on record: Mus musculus; test: Anti-inflammatory activity in MOG (35 to 55 residues)-induced experimental autoimmune encephalomyelitis mouse model assessed as reduction in spinal cord axonal neurodegeneration severity score by Bielschowsky silver staining based light microscopic analysis; assay type: functional, organism-based
Mus musculus [14] = species on record: Mus musculus; test: Anti-inflammatory activity in MOG (35 to 55 residues)-induced experimental autoimmune encephalomyelitis mouse model assessed as reduction in spinal cord inflammation severity score by H&E staining based light microscopic analysis; assay type: functional, organism-based

IC50 [4] [nM] | SMILES | further results
35 | O=C(O[C@@H]1Cc2c(O)cc(O)cc2O[C@H]1c1cc(O)c(O)c(O)c1)c1cc(O)c(O)c(O)c1F | Activity (Mus musculus [1]): Active; Activity (Mus musculus [2]): 90%; Activity (Mus musculus [3]): Active; Activity (Mus musculus [5]): Active; Activity (Mus musculus [6]): 79%; Activity (Mus musculus [7]): Active; Activity (Mus musculus [8]): Active
429 | COc1cc(C(=O)O[C@@H]2Cc3c(O)cc(O)cc3O[C@@H]2c2cc(O)c(O)c(O)c2)cc(O)c1O | 
108 | O=C(O[C@@H]1Cc2c(O)cc(O)cc2O[C@H]1c1cc(O)c(O)c(O)c1)c1ccc(O)c(O)c1O | 
432 | O=C(O[C@@H]1Cc2c(O)cc(O)cc2O[C@H]1c1cc(O)c(O)c(O)c1)c1cc(O)c(O)cc1C(F)(F)F | 
5800 | COc1c(O)cc([C@@H]2Oc3cc(O)cc(O)c3C[C@H]2OC(=O)c2cc(O)c(O)c(O)c2)cc1O | 
115 | O=C(O[C@@H]1Cc2c(O)cc(O)cc2O[C@H]1c1cc(O)c(O)cc1F)c1cc(O)c(O)c(O)c1F | 
220 | O=C(O[C@@H]1Cc2c(O)cc(O)cc2O[C@H]1c1ccc(O)c(O)c1)c1cc(O)c(O)c(O)c1 [(-)-CATECHINGALLATE] | 
236 | O=C(O[C@@H]1Cc2c(O)cc(O)cc2O[C@H]1c1cc(O)c(O)c(O)c1)c1ccc(O)c(O)c1 | 
 | CCCCCCCCc1ccc(CCC(N)(CO)CO)cc1 | Activity (Mus musculus [11]): Active; Activity (Mus musculus [12]): Active; Activity (Mus musculus [13]): Active; Activity (Mus musculus [14]): Active
523 | O=C(O[C@@H]1Cc2c(O)cc(O)cc2O[C@@H]1c1ccc(O)c(O)c1)c1cc(O)c(O)c(O)c1 [EPICATECHIN GALLATE] | 
553 | Cc1c(C(=O)O[C@@H]2Cc3c(O)cc(O)cc3O[C@H]2c2cc(O)c(O)c(O)c2)ccc(O)c1O | 
212 | O=C(O[C@@H]1Cc2c(O)cccc2O[C@H]1c1cc(O)c(O)c(O)c1)c1cc(O)c(O)c(O)c1 (racemic) | 
107 | O=C(O[C@@H]1Cc2c(O)cc(O)cc2O[C@H]1c1cc(O)c(O)c(O)c1)c1cc(O)c(O)cc1F | 
422 | O=C(O[C@@H]1Cc2ccccc2O[C@H]1c1cc(O)c(O)c(O)c1)c1cc(O)c(O)c(O)c1 (racemic) | 
1050 | O=C(O[C@@H]1Cc2ccccc2C[C@H]1c1cc(O)c(O)c(O)c1)c1cc(O)c(O)c(O)c1 (racemic) | 
296 | Cc1c([C@@H]2Oc3cc(O)cc(O)c3C[C@H]2OC(=O)c2cc(O)c(O)c(O)c2)cc(O)c(O)c1O | 
153 | O=C(O[C@@H]1Cc2c(O)cc(O)cc2O[C@H]1c1cc(O)c(O)cc1F)c1cc(O)c(O)c(O)c1 | 
60 | O=C(O[C@@H]1Cc2c(O)cc(O)cc2O[C@H]1c1cc(O)c(O)c(O)c1F)c1cc(O)c(O)c(O)c1 | 
74 | O=C(O[C@@H]1Cc2c(O)cc(O)cc2O[C@H]1c1ccc(O)c(O)c1)c1cc(O)c(O)c(O)c1F (racemic) | 
172 | O=C(O[C@@H]1Cc2c(O)cc(O)cc2O[C@H]1c1cc(O)c(O)c(O)c1)c1cc(O)c(O)cc1O | 
25100 | COc1c(O)cc(C(=O)O[C@@H]2Cc3c(O)cc(O)cc3O[C@H]2c2cc(O)c(O)c(O)c2)cc1O | 
145 | O=C(O[C@@H]1Cc2c(O)cc(O)cc2O[C@H]1c1cc(O)c(O)c(O)c1)c1cc(O)c(O)c(F)c1 | 
54 | O=C(O[C@@H]1Cc2c(O)cc(O)cc2O[C@H]1c1cc(O)c(O)c(O)c1F)c1cc(O)c(O)c(O)c1F | 

SMILES | IC50 [4] [nM] | further results
O=C(O[C@@H]1Cc2c(O)cc(O)cc2O[C@@H]1c1cc(O)c(O)c(O)c1)c1cc(O)c(O)c(O)c1 [EPIGALOCATECHIN GALLATE] | 232 | bioavailability [9]: ≤ 5%; bioavailability [10]: 12%
